Laboratory results published in patent US20240131032A1, “AN ACTIVITY-GUIDED MAP OF ELECTROPHILE-CYSTEINE INTERACTIONS IN PRIMARY HUMAN IMMUNE CELLS” (The Scripps Research Institute, priority 2019, published 2024).

What was measured:
[1] = biological target: T1, TMEM173 (Homo sapiens, UniProt Q86WV6); experiment: TMEM173/STING pathway activation by cGAMP in PBMCs (qPCR, ELISA, Bio-Plex); format: cell-based; details: BPK-25 10 μM
T1 construct: endogenous in cells; host or cells: primary human T cells
T1 sequence (Q86WV6 whole entry H232R): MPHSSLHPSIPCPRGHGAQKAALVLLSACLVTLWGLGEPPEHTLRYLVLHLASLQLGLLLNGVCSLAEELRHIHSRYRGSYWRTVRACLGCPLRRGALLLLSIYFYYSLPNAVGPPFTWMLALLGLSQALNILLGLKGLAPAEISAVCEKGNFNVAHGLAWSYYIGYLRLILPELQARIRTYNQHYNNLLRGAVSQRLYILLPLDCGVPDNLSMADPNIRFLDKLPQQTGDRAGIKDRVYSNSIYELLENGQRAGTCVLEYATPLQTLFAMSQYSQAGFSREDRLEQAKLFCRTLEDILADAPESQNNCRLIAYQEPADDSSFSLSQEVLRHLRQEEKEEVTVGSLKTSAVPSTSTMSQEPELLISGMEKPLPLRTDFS
Protocol: FIG. 12A is a pie chart showing the fraction of protein targets of active compounds with available crystal structures containing the corresponding liganded cysteine residues. FIG. 12B is a computer-generated model of BPK-21 and BPK-25 interactions with C91 of stimulator of interferon genes protein (STING, or TMEM173). FIG. 12C is a graph of IRF response of THP1-Lucia™ ISG cells. THP-1 Lucia ISG cells were treated with DMSO or BPK-25 in the presence of viral dsDNA (2 μg/mL) for 24 h and the levels of IRF-induced Lucia luciferase were determined using QUANTI-Luc™. Cell viability was measured using CellTiter-Glo™ assay. Luminescence signals for test samples were normalized to DMSO-treated samples and reported as relative light units (RLU)±SEM; n=3/group. […] Relative expression of IL-6, IL-1β, and IP10 (CXCL10) genes was measured by qPCR and normalized to actin. […] GFP-positive cells were further analyzed for CD25 and CD69 expression levels by measuring mean fluorescence intensity of the PE- (PE-CD25) and APC-channels (APC-CD69). […]
Freshly isolated PBMCs (4×10^6 cells/mL, 1 mL/well), were treated with BPK-25 (10 μM) or vehicle (DMSO) for 6 h in a 24-well plate, after which cGAMP (10 μM) was added to the wells and the cells were incubated for additional 20 h. […] When run on the Bioplex 200 system, […] of supernatant was mixed with 50 μL of beads and quantified against human cytokines standard curves. […]

[2] = system: NuRD complex member mRNA; experiment: mRNA expression of NuRD complex members (RNAseq); format: cell-based, human
Protocol: FIG. 7B is a scatter plot representation of protein abundance changes caused by BPK-25 (10 μM, 24 h) in two independent replicate experiments, with decreases in NuRD complex components highlighted in red. FIG. 7C is a heatmap of top proteins with decreased abundance in BPK-25-treated T cells showing that the subset of these proteins in the NuRD complex (asterisks) were largely unaltered by other active compounds and blocked in their degradation by co-treatment with the proteasome inhibitor MG132. […] FIG. 7E is a bar graph […] showing time-dependent reductions in NuRD complex members in human T cells treated with BPK-25 (10 μM). Left, representative western blots. Right, quantification of changes in protein. […] FIG. 7G is a heat map showing the changes in cysteine reactivity for NuRD complex members in human T cells treated with BPK-25 and other active compounds. […]
RNA quality was assessed using TapeStation 4200 and RNA-Seq libraries were prepared using the TruSeq stranded mRNA Sample Preparation Kit v2 according to Illumina protocols. Multiplexed libraries were validated using TapeStation 4200, normalized, pooled and quantified by qPCR for sequencing. […]
Sequenced reads were quality-tested using FASTQC Andrews S. (2010). […] Mapping was carried out using default parameters (up to 10 mismatches per read, and up to 9 multi-mapping locations per read). […]

`C=CC(=O)N(Cc1cccc(Cl)n1)c1ccc(C(=O)Nc2ccccc2)nc1` [BPK-25] was tested. Which “TMEM173 activation by cGAMP in primary human PBMCs” value [1] did it give?
The value was “inhibited TMEM173 activation”.

What about the “mRNA expression for NuRD complex members” value [2] of the same molecule?
The value was “not accompanied by corresponding changes in mRNA expression”.
